Results from patent publication EP0852142A1, “Diamines in the treatment of arrhythmia” (SMITHKLINE BEECHAM LABORATOIRES PHARMACEUTIQUES, priority 1992, dated 1993).
Where “and” joins values, the source holds several entries; their conditions need not be identical. Equal values may be shown once.

Legend:
anesthetized dog = assay: Hemodynamic and electrocardiographic parameters in anesthetized dogs (before and during LCX occlusion/reperfusion); format: in vivo; details: for QTc: Bazett
Method: Surgical preparation. Dogs were anesthetized using 30 mg/kg i.v. sodium pentobarbital. […] A catheter was inserted into the right femoral artery to measure the systemic arterial pressure (Statham P23 ID, GOULD). A 5F Millar microtip catheter pressure transducer was inserted into the left carotid artery and advanced into the left ventricular lumen to measure the left ventricular pressure (LVP) and its first positive derivative dP/dt. Peripheral venous and arterial catheters were placed for drug administration and blood samples collection, respectively. Electrocardiographic variables were measured via a standard lead II ECG. For determination of the Q-T interval of ECG a CV5RL precordial lead of ECG was measured as previously described (Koerner et al.,J.,Cardiovascular Pharmacol. […] After a left thoracotomy through the fifth intercostal space, the heart was suspended in a pericardial cradle. The left circumflex coronary artery (LCX) was isolated close to its origin and a silk suture was placed around it for later occlusion. Experimental time course. After placement of the silk strand the animal was allowed to stabilize for at least 10 minutes. Arterial blood gases were determined (ABL500, Radiometer), and ventilation was adjusted to maintain these parameters within the normal range. Then, intravenous administration of the drug was performed in 10 minutes. After the drug administration, hemodynamic and ECG variables were again measured and the LCX was occluded for 45 minutes by placing a microclamp. Reperfusion performed by removing the clamp was continued for 5 hours. Arterial blood pressure and ECG were recorded continuously on a Gould polyrecorder. Signals were digitised by an A/D convertor and analysed on an IBM computer using an interactive software (Clodia, Clod sarl) and then transfered to a VAX 4000-200 computer (Digital Equipment Corporation, Maynard, MA) for further analysis. Heart rate was calculated from the ECG. […] QTc = (QT interval in msec) / (R-R interval in sec)^½.

[1] = tested on: Ischemia and reperfusion-induced arrhythmias; assay: Ischemia and reperfusion-induced arrhythmias (ventricular fibrillation) in anesthetized dogs; format: in vivo, dog
Method: Surgical preparation. Dogs were anesthetized using 30 mg/kg i.v. sodium pentobarbital. […] A catheter was inserted into the right femoral artery to measure the systemic arterial pressure (Statham P23 ID, GOULD). A 5F Millar microtip catheter pressure transducer was inserted into the left carotid artery and advanced into the left ventricular lumen to measure the left ventricular pressure (LVP) and its first positive derivative dP/dt. Peripheral venous and arterial catheters were placed for drug administration and blood samples collection, respectively. Electrocardiographic variables were measured via a standard lead II ECG. […] After a left thoracotomy through the fifth intercostal space, the heart was suspended in a pericardial cradle. The left circumflex coronary artery (LCX) was isolated close to its origin and a silk suture was placed around it for later occlusion.
Experimental time course. After placement of the silk strand the animal was allowed to stabilize for at least 10 minutes. Arterial blood gases were determined (ABL500, Radiometer), and ventilation was adjusted to maintain these parameters within the normal range. Then, intravenous administration of the drug was performed in 10 minutes. After the drug administration, hemodynamic and ECG variables were again measured and the LCX was occluded for 45 minutes by placing a microclamp. Reperfusion performed by removing the clamp was continued for 5 hours.
Measurements. Ventricular arrhythmias were analyzed during the preischemic period, during ischemia and during the first hour of reperfusion. Ventricular premature beats (VPBs) were defined as identifiable premature QRS complexes and salvos as more than 2 consecutive VPBs. Ventricular tachycardia was defined as 4 or more consecutive VPBs. Ventricular fibrillation (VF) was diagnosed when total irregularity of rhythm occurred and when a rate could no longer be measured. If defibrillation was required a DC shock was given.

[2] = tested on: guinea pig papillary muscles; assay: Electrophysiological studies: transmembrane action potentials of isolated papillary muscle; format: cell-based, Guinea pigs; details: for resting membrane potential, action potential amplitude, Vmax: even at the highest concentrations
Method: Guinea pigs (300-350 g) were anesthetized by intravenous injection of sodium pentobarbital (60 mg/kg). After thoracotomy the heart was rapidly excised and placed in oxygenated Tyrode solution. Papillary muscles were removed from the right ventricle. Preparations were then fixed to the silastic base of a 5 ml organ bath and superfused with oxygenated Tyrode solution maintained at 37 ± 1 °C.
The solution was equilibrated with a gas mixture of 95% O2 - 5% CO2.
After a stabilisation period (at least 1 h), transmembrane action potentials were recorded with conventional microelectrodes (10 MOhm) connected to a high input impedance amplifier (BIOLOGIC VF 180). External stimuli were delivered to the preparation with bipolar platinum electrodes placed at one end of the muscle. The pulse duration was 1 ms and the amplitude was twice threshold. The basic cycle length was 1000 ms (PULSAR 6i stimulator). The signals were monitored on a storage oscilloscope (GOULD 1602) and simultaneously recorded on a digital tape recorder (BIOLOGIC DTR 1200) for further analysis.
Measurements were made of resting membrane potential (RMP), action potential amplitude (APA) and action potential durations at 30, 50 and 90% repolarization (APD30, APD50 and APD90 respectively). Recordings were made after 30 min of equilibration for each concentration. Only recordings in which the same impalement was maintained throughout the entire experiment were used for analysis.

[3] = preischemic period, Compound I 0.3 and 1.0 mg/kg, d-sotalol 3.0 and 10.0 mg/kg

COc1ccc(CCN(C)CCCN(C(=O)c2ccc([N+](=O)[O-])cc2)c2ccc(OC)c(OC)c2)cc1OC [Compound I, (N-[3,4-dimethoxy-phenyl]-N-3-[N'-2-(3,4-dimethoxyphenyl)-ethyl-N'-methylamino]propyl)-N'-4-nitrobenzamide]
PR (anesthetized dog; dog, in vivo): 112 ± 4 ms and 120 ± 6 ms and 115 ± 7 ms and 116 ± 3 ms and 113 ± 3 ms
heart rate (anesthetized dog; dog, in vivo): reduced heart rate in a dose-dependent manner
mean arterial and left ventricular pressure (anesthetized dog; dog, in vivo): only minimal changes
pressure rate product (anesthetized dog; dog, in vivo): reduced the pressure rate product
incidence of ventricular fibrillation ([1]; 0.3 mg/kg, 45 min ischemia and first 60 min of reperfusion, control dogs 66.7 %): 33.3%
incidence of ventricular fibrillation ([1]; 1.0 mg/kg, 45 min ischemia and first 60 min of reperfusion, control dogs 66.7 %, p <0.05): 14.3%
ventricular fibrillation during ischemia ([1]; 0.3 or 1.0 mg/kg, ischemic period): none of the dogs treated with Compound I experienced ventricular fibrillation during ischemia
Overshoot ([2]; 0.3 µM): 36 ± 1 mV
Vmax ([2]; 0.3 µM): 168 ± 14 V/sec
APD50 ([2]; 0.3 µM, action potential duration at 50 % of the repolarization): 162 ± 6 ms
RMP ([2]; 0.3 µM, resting membrane potential): -92 ± 1 mV
APD50 ([2]; 1 µM): 170 ± 5 ms
Overshoot ([2]; 1 µM): 35 ± 1 mV
RMP ([2]; 1 µM): -92 ± 1 mV
Vmax ([2]; 1 µM): 168 ± 14 V/sec
APD50 ([2]; 3 µM): 163 ± 5 ms
Overshoot ([2]; 3 µM): 34 ± 1 mV
RMP ([2]; 3 µM): -92 ± 1 mV
Vmax ([2]; 3 µM): 169 ± 14 V/sec
APD50 ([2]; 10 µM): 139 ± 6 ms
Overshoot ([2]; 10 µM): 33 ± 2 mV
RMP ([2]; 10 µM): -91 ± 1 mV
Vmax ([2]; 10 µM): 167 ± 15 V/sec
resting membrane potential, action potential amplitude, Vmax [2]: did not change
action potential duration ([2]; prolongation at 0.3 and 1 µM, no further increase at 3 µM, reduced at 10 µM): biphasic effect

CC(C)NCC(O)c1ccc(NS(C)(=O)=O)cc1 (stereo not drawn) [d-Sotalol]
PR (anesthetized dog; 3.0 mg/kg i.v., After drug, before drug 105 ± 5): 118 ± 7 ms
QT (anesthetized dog; 3.0 mg/kg i.v., After drug, before drug 238 ± 11): 269 ± 12 ms
QTc (anesthetized dog; 3.0 mg/kg i.v., After drug, before drug 384 ± 8): 397 ± 11 msec/sec^½
PR (anesthetized dog; 3.0 mg/kg i.v., Ischemia (45 min), before drug 105 ± 5): 111 ± 7 ms
QT (anesthetized dog; 3.0 mg/kg i.v., Ischemia (45 min), before drug 238 ± 11): 264 ± 7 ms
QTc (anesthetized dog; 3.0 mg/kg i.v., Ischemia (45 min), before drug 384 ± 8): 400 ± 8 msec/sec^½
PR (anesthetized dog; 3.0 mg/kg i.v., reperfusion (60 min), before drug 105 ± 5): 112 ± 5 ms
QT (anesthetized dog; 3.0 mg/kg i.v., reperfusion (60 min), before drug 238 ± 11): 251 ± 11 ms
QTc (anesthetized dog; 3.0 mg/kg i.v., reperfusion (60 min), before drug 384 ± 8): 392 ± 16 msec/sec^½
PR (anesthetized dog; 10.0 mg/kg i.v., After drug, before drug 109 ± 5): 115 ± 5 ms
QT (anesthetized dog; 10.0 mg/kg i.v., After drug, before drug 251 ± 11): 337 ± 19 ms
QTc (anesthetized dog; 10.0 mg/kg i.v., After drug, before drug 386 ± 3): 440 ± 14 msec/sec^½
PR (anesthetized dog; 10.0 mg/kg i.v., Ischemia (45 min), before drug 109 ± 5): 113 ± 5 ms
QT (anesthetized dog; 10.0 mg/kg i.v., Ischemia (45 min), before drug 251 ± 11): 312 ± 14 ms
QTc (anesthetized dog; 10.0 mg/kg i.v., Ischemia (45 min), before drug 386 ± 3): 423 ± 10 msec/sec^½
PR (anesthetized dog; 10.0 mg/kg i.v., reperfusion (60 min), before drug 109 ± 5): 113 ± 6 ms
QT (anesthetized dog; 10.0 mg/kg i.v., reperfusion (60 min), before drug 251 ± 11): 285 ± 11 ms
QTc (anesthetized dog; 10.0 mg/kg i.v., reperfusion (60 min), before drug 386 ± 3): 400 ± 8 msec/sec^½
heart rate (anesthetized dog; [3]): reduced heart rate in a dose-dependent manner
left ventricular dP/dtmax (anesthetized dog; [3]): reduction in the left ventricular dP/dtmax
mean arterial and left ventricular pressure (anesthetized dog; [3]): only minimal changes
pressure rate product (anesthetized dog; [3]): reduced the pressure rate product
ventricular fibrillation during the ischemic period ([1]; 3.0 mg/kg): one dog
incidence of ventricular fibrillation ([1]; 10.0 mg/kg (only the high dose), ischemia and reperfusion): reduced the incidence of ventricular fibrillation
APA ([2]; 3 µM): 127 ± 1 mV
APD30 ([2]; 3 µM): 93 ± 5 ms
APD50 ([2]; 3 µM): 136 ± 5 ms
APD90 ([2]; 3 µM): 171 ± 5 ms
Overshoot ([2]; 3 µM): 33 ± 1 mV
RMP ([2]; 3 µM): -95 ± 1 mV
Vmax ([2]; 3 µM): 199 ± 30 V/sec
APA ([2]; 10 µM): 128 ± 1 mV
APD30 ([2]; 10 µM): 101 ± 8 ms
APD50 ([2]; 10 µM): 151 ± 7 ms
APD90 ([2]; 10 µM): 190 ± 7 ms
Overshoot ([2]; 10 µM): 34 ± 1 mV
RMP ([2]; 10 µM): -94 ± 1 mV
Vmax ([2]; 10 µM): 209 ± 32 V/sec
APA ([2]; 30 µM): 127 ± 1 mV
APD30 ([2]; 30 µM): 104 ± 7 ms
APD50 ([2]; 30 µM): 160 ± 6 ms
APD90 ([2]; 30 µM): 204 ± 6 ms
Overshoot ([2]; 30 µM): 33 ± 1 mV
RMP ([2]; 30 µM): -94 ± 1 mV
Vmax ([2]; 30 µM): 209 ± 32 V/sec
APA ([2]; 100 µM): 127 ± 1 mV
APD30 ([2]; 100 µM): 102 ± 7 ms
APD50 ([2]; 100 µM): 165 ± 6 ms
APD90 ([2]; 100 µM): 214 ± 7 ms
Overshoot ([2]; 100 µM): 32 ± 1 mV
RMP ([2]; 100 µM): -94 ± 1 mV
Vmax ([2]; 100 µM): 207 ± 34 V/sec
action potential duration ([2]; 3 to 100 µM): dose-dependent increase in action potential duration
resting membrane potential, action potential amplitude, Vmax [2]: did not change
